Like-named read-outs stand apart in the source and are kept apart here.
Key:
[1] = target: T1, pOBP-mutant-F88W (Sus scrofa, UniProt P81245, F88W); assay: Competitive fluorescent binding assay of pOBP in solution (1-AMA probe); set-up: species or system porcine; conditions: pOBP and 1-AMA probe at 1 μM, 10 mM phosphate buffer pH 7.4, room temperature, calculated from IC50, read-out: dissociation constant KSol
T1 construct: His6 (N); made in house; host or cells: Escherichia coli BL21(DE3), pET5b vector
T1 sequence (P81245 1-157 F88W): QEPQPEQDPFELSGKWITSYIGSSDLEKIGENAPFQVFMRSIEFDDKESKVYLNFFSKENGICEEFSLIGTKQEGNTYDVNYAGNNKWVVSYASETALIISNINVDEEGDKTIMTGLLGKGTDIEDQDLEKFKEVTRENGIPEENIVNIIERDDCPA
Description: Emission fluorescence spectra were recorded using a Perkin Elmer LS55 instrument at room temperature, with a 1 cm light path quartz cuvette and 5 nm slits for both excitation and emission. The affinity of binding of pOBP was measured using the fluorescence probe 1-AMA as previously reported. About 1 μM pOBP-F88W solution in 10 mM phosphate buffer, pH 7.4, was titrated with aliquots of 1 mM 1-AMA in methanol to final concentrations of 0.25–8 μM. The probe was excited at 375 nm and the fluorescence spectra were recorded between 400 to 570 nm, monitoring the signals between 480 and 490 nm. The dissociation constant (K1-AMA) for the OBP/1-AMA complex was calculated using the equation y=(Bmax × x)/(K1-AMA+x), where y is the degree of saturation, Bmax is the number of maximum binding sites, and K1-AMA is the dissociation constant. The calculation was run using the software Sigma Plot and a single binding site was considered for the OBP.
The affinity of pOBP-F88W towards S-(+)-carvone and R-(−)-carvone and 2-phenylethanol was measured in competitive binding assays, using both pOBP and probe at 1 μM as the final concentration. The ligand solutions, with concentrations ranging from 2 to 20 μM, were prepared in 10 mM phosphate buffer pH 7.4 and used for the binding experiments. Dissociation constants of competitors were calculated from the corresponding IC50 values, using the equation: KSol=[IC50]/1+[1-AMA]/K1-AMA, where [1-AMA] is the free concentration of the fluorescence probe and K1-AMA is the dissociation constant of the complex OBP/1-AMA.

[2] = target: T2, pOBP-SAM (pOBP-F88W immobilized on gold gate) (Sus scrofa, UniProt P81245, F88W); assay: WGOFET with pOBP-SAM gate: binding curves from ΔI/I electronic response; set-up: species or system porcine; conditions: for α (Hill degree of cooperativity): Hill's isotherm fit of binding curve of Fig. 5b; for Kd: pOBP-SAM gate, fit of ΔI/I binding curve of Fig. 5b; for ΔC/C, fractional change of pOBP-SAM capacitance (measured chiral response): at saturation, extracted from source-drain current (Fig. 8a); for plateau response at saturation (ΔI/I): best-fit parameter of binding curve of Fig. 5b, IDS at VG=−0.5 V; for WGOFET response at saturation: binding curves of Fig. 5b; for maximum fractional decrease of IDS: control experiment of Fig. 6: same pOBP-SAM gate exposed alternately to the two enantiomers, rinsed between exposures
T2 construct: His6 (N); made in house; host or cells: Escherichia coli BL21(DE3), pET5b vector
T2 sequence (P81245 1-157 F88W): T1 sequence (P81245 1-157 F88W)
From the text: where Ci≈COBP is the capacitance per unit area. In Fig. 5a, the pOBP-WGOFET transfer-characteristics (IDS versus VG at VDS=−0.5 V) are reported for a device gated with a pristine pOBP-SAM (baseline, red curve) along with the traces measured after exposing the pOBP-SAM to progressively higher concentrations of (S)-(+)carvone (signal, black curves). Apparently, a significant degree of current decrease can be measured even at very low ligand concentrations. In the Supplementary Fig. 8, the gate leakage currents (IG) for the data of Fig. 5a are reported for comparison. […] From the transfer curve the COBP and μFET product, as well as the VT values are extracted. μFET can be as high as (1.1±0.2) × 10^−1 cm^2 V^−1 s^−1, showing a very good level of performance for the pOBP-SAM WGOFET[37]. The fractional current decrease upon binding was evaluated from the transfer curves as ΔI/I=[(I−I0)I0^−1] with I and I0 being IDS values at VG=−0.5 V for the signal and for the base-line curves, respectively. ΔI/I was taken as the WGOFET electronic response as this normalizes the device-to-device variation in FET biosensors, resulting in high response reproducibility.
The fitting of the (S)-(+)-carvone binding curve (red solid line in Fig. 5b) is performed using Langmuir’s isotherm Y=bMAX(X/(KFET+X)), where Y is the ΔI/I electronic response proportional, through bmax, to the degree of saturation. X is the ligand concentration and KFET is the dissociation constant. The fitting of the (R)-(−)-carvone (magenta solid curve in Fig. 5b) was calculated using Hill’s binding model, also used to model the data relevant to the 2-phenylethanol (blue curve). The Hill’s equation is Y=bMAX(X^α/(KFET+X^α)), with α giving the degree of cooperativity (α=1 for non-cooperative, α>1 and α<1 for positive and negative cooperativity, respectively). The fit of the S-(+)-carvone data to a Langmuir’s non-cooperative binding isotherm[39] returns a dissociation constant KFET^+=0.81±0.05 nM and a plateau response at a saturation of (ΔI/I)^+=0.62±0.01, while the limit-of-detection is 50 pM and the limit-of-quantification is 150 pM. The detection of carvone enantiomers here performed is about 6 orders of magnitude better than the determinations performed with a back-gate device. A comparison between the two systems is not straightforward as they hold different device structures and different recognition elements. However, it is a fact that in the WGOFET a direct interaction between the bio-recognition element layer and an electronic interface, is created. The R-(−)-carvone data could only be accounted for by a Hill’s binding isotherm[38] that, through the α coefficient, models the extent of cooperativity of a given binding site. […] The fitting of the S-(+)-carvone to the Hill’s isotherm, performed as control, returns a KFET=0.4±0.2 nM and an α=1.1±0.1, consistent with the Langmuir’s fit. The errors are taken as 1 s.d., as for all data presented.
PBTTT-C14 was dissolved (7 mg ml^−1) in a mixture of 1,2-dichlorobenzene and chloroform (9:1). Gold source (S) and drain (D) interdigitated electrodes were photo-lithographically defined on a flexible substrate. The distance between two differently biased fingers is the channel length (L), while the perimeter of each set of equipotential fingers is the channel width (W); they are 5 μm and 10^4 μm, respectively. The substrate with patterned electrodes was spin coated with a PBTTT-C14 solution at 7,000 r.p.m. for 60 s and annealed at 120 °C for 10 min. A gold plate with an area of ~3 10^−2 cm^2 served as the gate (G) electrode. The SAM functionalizing protocol[52] involved a 50 mM solution of 3-mercaptopropionic acid (3MPA) in ethanol containing 5% acetic acid. N2 was bubbled through the 3MPA solution for at least 10 min to remove dissolved oxygen. The gold electrodes were immersed into the 3MPA solution and kept in the dark under N2 for 18 h at 22 °C. […]

[3] = tested on: human; set-up: method as in earlier work; conditions: perceived as spearmint or caraway odours; cited from earlier work
[4] = read-out: dissociation constant KFET (Hill's isotherm fit)

Kd [1] [nM] | α (Hill degree of cooperativity) [2] | Kd [2, 4] [nM] | ΔC/C, fractional change of pOBP-SAM capacitance (measured chiral response) [2] | plateau response at saturation (ΔI/I) [2] | WGOFET response at saturation [2] [%] | maximum fractional decrease of IDS [2] | limit-of-detection ([2]; pOBP-SAM WGOFET) [pM] | limit-of-quantification ([2]; pOBP-SAM WGOFET) [pM] | Kd ([2]; three devices, read-out: dissociation constant KFET (Langmuir's isotherm fit)) [nM] | SMILES | human threshold for detection (odour) [3] [nM]
~40000 | 0.3±0.1 | 700 ± 330 | – | – | – | – | – | – | – | OCCc1ccccc1 [2-phenylethanol] | –
500 ± 10 | 1.1±0.1 | 0.4 ± 0.2 | −0.485 | 0.62±0.01 | > 60 | ~ 60% | 50 | 150 | 0.81 ± 0.05 | C=C(C)[C@H]1CC=C(C)C(=O)C1 [(S)-(+)-carvone] | 420
1220 ± 50 | 0.5±0.1 | 20 ± 20 | −0.17 | 0.17±0.02 | < 20 | much higher response at saturation | – | – | – | C=C(C)[C@@H]1CC=C(C)C(=O)C1 [(R)-(−)-carvone] | 30

— article PMC4309438, “Capacitance-modulated transistor detects odorant binding protein chiral interactions” (Nature Communications, 2015)
